From paper PMC9945865, “Anticancer evaluation of new organometallic ruthenium(II) flavone complexes” (RSC Medicinal Chemistry, 2022)

Assays:
MCF-7 [1] = assay: Cell viability, 72 h MTT assay; assay type: cell-based, human; settings: MCF-7, 72 h MTT, mean ± SEM, n = 3
Method: (§1) The unique chemical features and coordination geometries of metal ions can add several additional binding interactions that can potentially enhance their anticancer properties for example by allowing intercalation and exploitation of their redox potential.[24] […] In that context, coordination of derivative (2) with a Ru(II) metal ligand is a promising approach to further improve its antiproliferative activity.
(§2) MCF-7 and MDA-MB-231 cells were seeded at a density of 4 × 10^4 and 2 × 10^4 cells per mL, respectively, into 96 well plates and incubated to allow the attachment for 24 h. After 24 h, the cells were treated with one of the synthesised derivatives at range of concentrations (0–100 μM) for 67 h. After 67 h, 20 μL of MTT (5 mg mL^−1) solution in PBS was added to each well and the cells were incubated for 5 h. The purple crystals formed were dissolved in 100 μL of DMSO and the plates were read at 560 nm using a SPECTRA max UV spectrometer (Bio-Rad). The data represented are the mean of the three individual experiments.

MDA-MB-231 [2] = assay: Cell viability, 72 h MTT assay; assay type: cell-based, human; settings: MDA-MB-231, 72 h MTT, mean ± SEM, n = 3
Method: as §1, §2

c-myc i-motif DNA = assay: I-motif DNA UV melting (thermal stability); assay type: binding, human; settings: for Tm: c-myc i-motif with flavone at 1 : 1 ratio, 295 nm, free DNA 45 °C; for ΔTm: c-myc i-motif, 1 : 1 ratio, ΔTm = Tm (DNA-flavone) − Tm (DNA)
Source text: (§3) The effect of this set of flavones on VEGF and c-myc was further evaluated via thermal stability measurements. Stabilizing/destabilizing the promotor i-motif structures is often reported to regulate expression of the corresponding genes, which for VEGF and c-myc could have detrimental effects on cancer growth and propagation.[48] As observed in Fig. 9, effects of the test flavones on the thermal stability of the VEGF and c-myc i-motif sequences were generally marginal and in agreement with λmax chromophoric shifts. […] Compound 1 destabilized VEGF i-motif in contrast to stabilizing the c-myc one. This mirrored the trend of a higher chromophoric shift observed for flavone 1 with VEGF i-motif sequence that also differed in pattern (hypochromic) from the shift witnessed with the c-myc sequence (hyperchromic). These findings could indicate higher selectivity of the 4-oxo derivative (1) towards VEGF i-motif based on an intercalative binding mode especially that hypochromic shifts are reported with DNA intercalation.[49,50] […] In this regard, the highest i-motif activity seen for the parent flavonoids was switched from VEGF to c-myc with compound 1 and vice versa with compound 2 upon Ru chelation. This emphasizes the key role of the interplay between the substitution at position 4 and metal complexation on the interaction with biological targets.
(§4) UV-visible absorbance measurements and DNA UV melting studies were performed on a Cary 300 C (Varian USA) UV-visible spectrophotometer. VEGF and c-myc i-motif DNA (5′-3′ sequences ([…]) and ([…]), respectively) were purchased from Sigma-Aldrich (Gillingham, UK) and used without further purification. Na cacodylate buffer (20 mM, pH 5.5) was used for both i-motifs. DNA concentrations were determined by measuring the absorbance at 260 nm after melting using the molar extinction coefficient supplied by the manufacturer. VEGF and c-myc i-motifs were prepared for experiments by diluting with buffer solution, annealed with or without the flavonoid at 95 °C for 5 min then gently cooled to room temperature. The stock solutions of the test compounds (20 mM) were prepared in 100% sterile DMSO. These stocks were then appropriately diluted with HPLC grade water and DMSO levels were maintained below 0.1% in the test concentrations.
(§5) UV-visible absorbance measurements and UV melting studies of either free i-motifs (VEGF or c-myc), free flavone (1, 1Ru, 2 or 2Ru) or both i-motif DNA and flavone (2 μM: 2 μM) were recorded using 1.0 cm matched quartz cuvettes. First spectra were recorded in the range of 200–500 nm to determine the relevant wavelength range were no peaks were observed above 320 nm. […] UV-visible absorbance was measured at 25 °C while melting curves were collected at a heating rate of 1 °C min^−1 from 20 to 90 °C. Tm was calculated by non-linear fitting of the sigmoidal curve obtained at 295 nm.

VEGF i-motif DNA = assay: I-motif DNA UV melting (thermal stability); assay type: binding, human; settings: for Tm: VEGF i-motif with flavone at 1 : 1 ratio, 295 nm, free DNA 46 °C; for ΔTm: ΔTm = Tm (DNA-flavone) − Tm (DNA)
Source text: as §3, §4, §5

MCF-7 [3] = assay: Wound healing (migration) 24 h scratch assay; assay type: cell-based, human
Method: (§6) Malignant cell migration is essential for tumour invasion and metastasis.[1] Thus, the ability of the synthetic flavones (1 and 2) and their Ru(II) metal complexes (1Ru and 2Ru) to inhibit the migration of breast cancer cells (MCF-7 and MDA-MB-231) was assessed by an in vitro 24 h scratch assay. Low, sub-cytotoxic concentrations of 1, 10 and 20 μM were used in this evaluation.
(§7) MCF-7 or MDA-MB-231 cells were seeded in 12-well plates at 2 × 10^5 or 1 × 10^5 cells per mL, respectively, and cultured until 70–80% confluency. Afterwards, they were serum-starved (0% serum) for 24 h to inactivate the cell proliferation. A scratch was performed on the cell monolayers using a 200 μL pipette tip. Cells were then washed twice with PBS and treated with complete medium and one of the synthesized derivatives at 1, 10 or 20 μM. […] Images of the scratches were taken immediately after performing the scratch (t = 0 h) and at 24 h (t = 24 h). The area not covered by the cells was quantified using ImageJ software. % of wound closure was calculated using the following equation:100 × ((Area of scratch at t0 − Area of scratch at t24)/Area of scratch at t0)

MDA-MB-231 [4] = assay: Wound healing (migration) 24 h scratch assay; assay type: cell-based, human; settings: for rise in compound 2's migration inhibition activity upon metal coordination: p < 0.05
Method: as §6, §7

[5] = Temperature dependent UV-vis stability of the complexes; assay type: physicochemical; set-up: key to Δλ260: change in absorbance at 260 nm (absorbance units); settings: for λ260 (absorbance at 260 nm) / UV-vis stability profile: 0.1% DMSO/ddH2O; for UV-vis stability profile: temperature increments 20-80 °C, 6 h time interval
Method: Wavelength (nm) Wavelength (nm)
Figure 3. Temperature dependant UV-VIS spectra of (A) 1Ru and (B) 2Ru in 0.1%DMSO/ddH2O solution recorded
over a 6 h time interval.
Table 1. λ260a and Δ λ260b of complexes 1Ru and 2Ru at 20 °C – 80 °C

SMILES | IC50 (MCF-7 [1]) | IC50 (MDA-MB-231 [2]) | Tm (c-myc i-motif DNA) | ΔTm (c-myc i-motif DNA) | Tm (VEGF i-motif DNA) | ΔTm (VEGF i-motif DNA; VEGF i-motif, 1 : 1 ratio) | migration inhibition (MCF-7 [3]; MCF-7, 1 μM) | migration inhibition (MCF-7 [3]; MCF-7, 10 μM) | migration inhibition (MCF-7 [3]; MCF-7, 20 μM) | Δλ260 ([5]; 20 °C (baseline)) | λ260 (absorbance at 260 nm) ([5]; 20 °C) | Δλ260 ([5]; 40 °C minus 20 °C) | λ260 (absorbance at 260 nm) ([5]; 40 °C) | Δλ260 ([5]; 60 °C minus 20 °C) | λ260 (absorbance at 260 nm) ([5]; 60 °C) | Δλ260 ([5]; 80 °C minus 20 °C) | λ260 (absorbance at 260 nm) ([5]; 80 °C) | UV-vis stability profile [5] | other results
Cc1ccc(C(C)C)cc1.O=c1cc(-c2ccc(Cl)cc2)oc2cc(O)cc([O-])c12.[Cl-].[Ru+2] [1Ru, chlorido [(5-oxo-κO)-7-hydroxy-2-(4′-chlorophenyl)-4H-chromen-4-onato-κO] (η^6-p-cymene)ruthenium(II)] | 66.2 ± 5 µM | > 100 µM | 48 °C | 3 °C | 47 °C | 1 °C | 50% | 42% | 41% | 0 | 0.0435 | 0.00072 | 0.04422 | 0.00174 | 0.04525 | 0.00388 | 0.04738 | sufficient stability | effect on the migration (MDA-MB-231 [4]; MDA-MB-231, 1, 10, 20 μM, 24 h): neither showed any effect
Cc1ccc(C(C)C)cc1.[Cl-].[O-]c1cc(O)cc2oc(-c3ccc(Cl)cc3)cc(=S)c12.[Ru+2] [2Ru, chlorido [(5-oxo-κO)-7-hydroxy-2-(4′-chlorophenyl)-4H-chromen-4-thionato-κO] (η^6-p-cymene)ruthenium(II)] | > 100 µM | > 100 µM | 44 °C | −1 °C | 42 °C | −4 °C | 52% | 49% | 55% | 0 | 0.03108 | 0.0013 | 0.02973 | 0.0021 | 0.02902 | 0.0028 | 0.02832 | sufficient stability | decrease in the i-motif's transition temperature (Tm) (VEGF i-motif DNA; VEGF i-motif, 1 : 1 ratio): 4 °C; migration inhibition (MDA-MB-231 [4]; MDA-MB-231, 1 μM, 24 h): 47%; rise in compound 2's migration inhibition activity upon metal coordination (MDA-MB-231 [4]; MDA-MB-231, 1 μM): 4%; migration inhibition (MDA-MB-231 [4]; MDA-MB-231, 10 μM, 24 h): 44%; migration inhibition (MDA-MB-231 [4]; MDA-MB-231, 20 μM, 24 h): 36%; rise in compound 2's migration inhibition activity upon metal coordination (MDA-MB-231 [4]; MDA-MB-231, 20 μM): 7%
